Measurements: ChEMBL document CHEMBL6096689, “Structure-Guided Development of ClpP Agonists with Potent Therapeutic Activities against Staphylococcus aureus Infection” (J Med Chem, 2025)
Values after ≈ are worked out from the molar mass of the structure shown. Active and inactive are the calls of the source. No cut-off for these calls is given here.

Assays:
Staphylococcus aureus [1] = assay: microbe, parasite or virus in culture; format: functional; settings: time 18 hrs
Description: Antibacterial activity against multidrug-resistant Staphylococcus aureus clinical isolate XJ052 assessed as inhibition of visible growth of bacteria incubated for 18 hrs by absorbance based analysis

[2] = Therapeutic index, ratio of IC50 for HK-2 cells to MIC for Staphylococcus aureus Newman; format: toxicity, cell-based; settings: human, read-out: TI
Staphylococcus aureus [3] = assay: Antibacterial activity against Staphylococcus aureus USA300 infected in female ICR mouse peritonitis model assessed as reduction in bacterial load in heart at 25 to 100 mg/kg, ip pre-infected for 1 hrs followed by compound addition and measured after 5 days relative to control; format: functional; settings: dose 25-100 mg/kg, time 5 day
[4] = molecular target: T1, ATP-dependent Clp protease proteolytic subunit (Staphylococcus aureus (strain NCTC 8325)) (UniProt Q2G036); assay: Induction of thermal stabilization of Staphylococcus aureus ClpP extracted from Escherichia coli BL21 (DE3) cells assessed as change in melting temperature at 10 uM incubated for 10 mins by DSF analysis
T1 sequence (whole entry): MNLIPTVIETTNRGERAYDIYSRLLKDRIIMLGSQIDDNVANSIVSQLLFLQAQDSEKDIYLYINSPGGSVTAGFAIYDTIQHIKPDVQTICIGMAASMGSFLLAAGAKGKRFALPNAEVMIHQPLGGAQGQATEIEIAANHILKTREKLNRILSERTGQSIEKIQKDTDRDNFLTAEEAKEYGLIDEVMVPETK

Staphylococcus aureus [5] = assay: Antibacterial activity against CLpP overexpressing Staphylococcus aureus 8325-4 assessed as inhibition of visible growth of bacteria incubated for 18 hrs by absorbance based assay; format: functional, organism-based
[6] = Therapeutic index, ratio of IC50 for HEK293T/17 cells to MIC for Staphylococcus aureus Newman; format: toxicity, cell-based; settings: human, read-out: TI
Staphylococcus aureus [7] = assay: Antibacterial activity against Staphylococcus aureus USA300 infected in Zebrafish infection model assessed as increase in zebrafish survival at 25 mg/kg pre-infected for 1 hrs followed by compound addition and measured after 5 days; format: functional, organism-based; settings: time 5.0 day
[8] = molecular target: T2, ATP-dependent Clp protease proteolytic subunit (Staphylococcus aureus (strain NCTC 8325), UniProt Q2G036); assay: Agonist activity at Staphylococcus aureus ClpP extracted from Escherichia coli BL21 (DE3) cells using alpha-casein as substrate assessed as substrate hydrolysis preincubated for 15 mins followed by substrate addition and measured after 2 hrs by SDS-PAGE analysis
T2 sequence (Q2G036 whole entry): T1 sequence (whole entry)

Staphylococcus aureus [9] = assay: Antibacterial activity against Staphylococcus aureus USA300 infected in female ICR mouse peritonitis model assessed as reduction in bacterial load in peritoneal fluid at 25 to 100 mg/kg, ip pre-infected for 1 hrs followed by compound addition and measured after 5 days relative to control; format: functional; settings: dose 25-100 mg/kg, time 5 day
Staphylococcus aureus [10] = assay: microbe, parasite or virus in culture; format: functional; settings: NRS-271, time 18 hrs
Description: Antibacterial activity against methicillin-resistant Staphylococcus aureus NRS-271 assessed as inhibition of visible growth of bacteria incubated for 18 hrs by absorbance based analysis

[11] = molecular target: ATP-dependent Clp protease proteolytic subunit (Escherichia coli (strain K12), UniProt P0A6G7); assay: Agonist activity at Escherichia coli ClpP using alpha-casein as substrate assessed as substrate hydrolysis preincubated for 15 mins followed by substrate addition and measured after 2 hrs by SDS-PAGE analysis
Staphylococcus aureus [12] = assay: Antibacterial activity against CLpP complemented Staphylococcus aureus 8325-4 assessed as inhibition of visible growth of bacteria incubated for 18 hrs by absorbance based assay; format: functional, organism-based
Staphylococcus aureus [13] = assay: Antibacterial activity against Staphylococcus aureus USA300 infected in female ICR mouse peritonitis model assessed as reduction in bacterial load in lung at 25 to 100 mg/kg, ip pre-infected for 1 hrs followed by compound addition and measured after 5 days relative to control; format: functional; settings: dose 25-100 mg/kg, time 5 day
Staphylococcus aureus [14] = assay: microbe, parasite or virus in culture; format: functional; settings: time 18 hrs; remark: listed apart in the source
Description: Antibacterial activity against multidrug-resistant Staphylococcus aureus clinical isolate XJ009 assessed as inhibition of visible growth of bacteria incubated for 18 hrs by absorbance based analysis

Staphylococcus aureus [15] = assay: Antibacterial activity against oxacillin-resistant Staphylococcus aureus clinical isolate XJ049 infected in female ICR mouse peritonitis model assessed as mouse survival at 50 mg/kg, ip pre-infected for 1 hrs followed by compound addition and measured after 5 days relative to control; format: functional; settings: 120 h, time 5 day

Sequence of ATP-dependent Clp protease proteolytic subunit (Escherichia coli (strain K12), UniProt P0A6G7) (P0A6G7 whole entry): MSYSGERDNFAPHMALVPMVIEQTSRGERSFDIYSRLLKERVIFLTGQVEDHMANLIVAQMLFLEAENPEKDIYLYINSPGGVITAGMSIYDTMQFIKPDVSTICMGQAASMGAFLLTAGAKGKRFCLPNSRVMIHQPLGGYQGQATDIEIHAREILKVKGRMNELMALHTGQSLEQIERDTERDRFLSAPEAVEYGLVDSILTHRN

CC[C@H](C)[C@H]1C(=O)N(Cc2ccc(OC)c3ccccc23)C[C@@H]2N(C(=O)NCCCC(F)(F)F)CCC(=O)N12
MIC (Staphylococcus aureus [1]): 0.13 µg/mL (≈ 0.237 µM)
selectivity ratio [2]: 180
Activity (Staphylococcus aureus [3]): 2 log10CFU/g
ΔTm [4]: 22.8 °C
Activity (Staphylococcus aureus [5]): Active
selectivity ratio [6]: 190
Activity (Staphylococcus aureus [7]): Active
EC50 [8]: 1100 nM
Activity (Staphylococcus aureus [9]): 2 log10CFU/g
MIC (Staphylococcus aureus [10]): 0.06 µg/mL (≈ 0.109 µM)
EC50 [11]: > 100000 nM
Activity (Staphylococcus aureus [12]): Active
Activity (Staphylococcus aureus [13]): 2 log10CFU/g
MIC (Staphylococcus aureus [14]): 0.06 µg/mL (≈ 0.109 µM)
survival at 50 mg/kg (Staphylococcus aureus [15]): 100%
